We go through 15 molecules from ChEMBL document CHEMBL5126520, “Recent research results have converted gp120 binders to a therapeutic option for the treatment of HIV-1 infection. A medicinal chemistry point of view” (Eur J Med Chem, 2022).

For data set [1], the system named is Human immunodeficiency virus 1. The data set is described as follows: Antiviral activity against HIV-1 IIIB infected in human MT2 cells assessed as reduction in p24 antigen level incubated for 1 hr by ELISA. Format: functional, organism-based. The conditions noted are these: Human immunodeficiency virus 1, IIIB, MT2, 1 h.
Data set [2] can be described thus: Cytotoxicity against human MT2 cells assessed as reduction in cell viability incubated for 4 days by XTT assay. The format is toxicity, cell-based. The conditions noted are these: time 4 day. On the technique in general: Tetrazolium assays rely on reduction of a dye to a coloured formazan, in cell work by metabolically active cells.
Data set [3] can be described thus: Selectivity index, ratio of CC50 for cytotoxicity against human MT2 cells to EC50 for antiviral activity against HIV-1 IIIB infected in human MT2 cells. Format: toxicity, cell-based. The conditions noted are these: read-out: Ratio CC50/EC50.
For data set [4], the system named is Human immunodeficiency virus 1. As to the kind of experiment: Antiviral activity against HIV-1 pseudotyped virus expressing HXB-2 Env proteins infected in human TZM-bl cells assessed as inhibition of viral entry preincubated for 30 mins followed by infection with cells and measured after 3 days by luciferase based analysis. Format: functional, organism-based. The conditions noted are these: Human immunodeficiency virus 1, TZM-bl.

A short description of data set [5]: Selectivity index, ratio of CC50 for Cytotoxicity against human TZM-bl cells to EC50 for antiviral activity against HIV-1 pseudotyped virus expressing HXB-2 Env proteins infected in human TZM-bl cells. The format is toxicity, cell-based. The conditions noted are these: read-out: Ratio CC50/EC50.
In data set [6] the test system is Human immunodeficiency virus 1. As to the kind of experiment: Antiviral activity against HIV-1 JR-FL. The conditions noted are these: Human immunodeficiency virus 1, JR-FL. The format is functional, organism-based.
The subject of data set [7] is Human immunodeficiency virus 1. As to the kind of experiment: Antiviral activity against HIV-1 YU-2 assessed as inhibition of viral entry. The conditions noted are these: Human immunodeficiency virus 1, YU-2. The format is functional, organism-based.
The subject of data set [8] is Human immunodeficiency virus 1. As to the kind of experiment: Antiviral activity against HIV-1 CH58TF infected in human TZM-bl cells assessed as neutralization viral infection pretreated for 1 hr followed by infection with cells and measured after 48 hrs by luciferase assay. The conditions noted are these: Human immunodeficiency virus 1, CH58TF. Format: functional, organism-based.

The subject of data set [9] is Human immunodeficiency virus 1. As to the kind of experiment: Antiviral activity against laboratory-adapted HIV-1 NL4-3 infected in human TZM-bl cells incubated for 2 days by luciferase based analysis. The conditions noted are these: Human immunodeficiency virus 1, NL4-3, TZM-bl, 48 h. The format is functional, organism-based.
In data set [10] the target is Envelope glycoprotein gp160 (Human immunodeficiency virus 1, UniProt Q6QLK5). The data set is described as follows: Inhibition of HIV1 gp120 interaction with CD4 pretreated for 1 hr followed by TMB substrate addition and measured after 10 mins by ELISA.
Data set [11] relates to Human immunodeficiency virus 1. The data set is described as follows: Antiviral activity against HIV-1 IIIB(X4) infected in human MT2 cells assessed as reduction in p24 antigen level preincubated for 30 mins followed by infection with cells and measured after 3 to 4 days by ELISA. The format is functional, organism-based. The conditions noted are these: Human immunodeficiency virus 1, IIIB(X4). A general note: In an ELISA, binding on a coated surface is turned into a signal by an enzyme label.

In data set [12] the test system is Human immunodeficiency virus 1. The data set is described as follows: Antiviral activity against HIV-1 Bal(R5) infected in human CEMx174 5.25M7 cells assessed as reduction in p24 antigen level preincubated for 30 mins followed by infection with cells and measured after 3 to 4 days by ELISA. Format: functional, organism-based. The conditions noted are these: Human immunodeficiency virus 1, Bal(R5).

Data set [13] concerns Human immunodeficiency virus 1. As to the kind of experiment: Antiviral activity against HIV-1 Bal.01 infected in HOS.T4.R5 cells preincubated for 45 mins followed by infection with cells and measured 24 hrs post infection by luminescence based analysis. The conditions noted are these: Human immunodeficiency virus 1, Bal.01, HOS.T4.R5. The format is functional, organism-based.

A short description of data set [14]: Cytotoxicity against HOS.T4.R5 cells assessed as reduction in cell viability incubated for 24 hrs by WST-1 assay. The format is toxicity, cell-based. The conditions noted are these: human.
Data set [15] is described as follows: Cytotoxicity against human TZM-bl cells assessed as reduction in cell viability incubated for 3 days by MTS assay. The format is toxicity, cell-based. The conditions noted are these: time 3 day.
Data set [16] has as its system Human immunodeficiency virus 1. The data set is described as follows: Antiviral activity against HIV-1 IIIB infected in human MT2 cells assessed as inhibition of p24 production preincubated for 30 mins followed by infection with cells and measured after 4 days by ELISA. Format: functional, organism-based. The conditions noted are these: Human immunodeficiency virus 1, IIIB.

Data set [17] in a line: Cytotoxicity against human MT2 cells assessed as reduction in cell viability incubated for 4 days by MTS assay. The format is toxicity, cell-based. The conditions noted are these: time 4 day.
For data set [18], the system named is Human immunodeficiency virus 1. The data set is described as follows: Antiviral activity against HIV-1 IIIB(X4) infected in human CEMx174 5.25M7 cells assessed as inactivation of HIV-1 free virions by measuring p24 antigen level preincubated for 1 hr followed by infection with cells and measured after 3 to 4 days by ELISA. The conditions noted are these: Human immunodeficiency virus 1, IIIB(X4). The format is functional, organism-based.

The subject of data set [19] is Human immunodeficiency virus 1. The data set is described as follows: Antiviral activity against HIV-1 Bal(R5) infected in human CEMx174 5.25M7 cells assessed as inactivation of HIV-1 free virions by measuring p24 antigen level preincubated for 1 hr followed by infection with cells and measured after 3 to 4 days by ELISA. The format is functional, organism-based. The conditions noted are these: Human immunodeficiency virus 1, Bal(R5).

Data set [20] is described as follows: Cytotoxicity against human MT2 cells assessed as reduction in cell viability incubated for 48 hrs by CCK-8 assay. Format: toxicity, cell-based.
Data set [21] can be described thus: Cytotoxicity against human CEMx174 5.25M7 cells assessed as reduction in cell viability incubated for 48 hrs by CCK-8 assay. Format: toxicity, cell-based.

Starred links: 1 amine or outer side, 2 acyl side, 3 side chain; linkers in the order of their positions; H or OH if unused. Positions of bridges follow the written chain, without caps; N, C: chain ends. Non-standard residues stand in square brackets, D forms with d. Residues, ends and D or L forms follow the SMILES beside them. X1 = O=C([C@@H]1CC(n2cc(-c3ccc(-c4cccs4)cc3)nn2)CN1[*:1])[*:2]

Envelope glycoprotein gp160, sequence (Q6QLK5 whole entry): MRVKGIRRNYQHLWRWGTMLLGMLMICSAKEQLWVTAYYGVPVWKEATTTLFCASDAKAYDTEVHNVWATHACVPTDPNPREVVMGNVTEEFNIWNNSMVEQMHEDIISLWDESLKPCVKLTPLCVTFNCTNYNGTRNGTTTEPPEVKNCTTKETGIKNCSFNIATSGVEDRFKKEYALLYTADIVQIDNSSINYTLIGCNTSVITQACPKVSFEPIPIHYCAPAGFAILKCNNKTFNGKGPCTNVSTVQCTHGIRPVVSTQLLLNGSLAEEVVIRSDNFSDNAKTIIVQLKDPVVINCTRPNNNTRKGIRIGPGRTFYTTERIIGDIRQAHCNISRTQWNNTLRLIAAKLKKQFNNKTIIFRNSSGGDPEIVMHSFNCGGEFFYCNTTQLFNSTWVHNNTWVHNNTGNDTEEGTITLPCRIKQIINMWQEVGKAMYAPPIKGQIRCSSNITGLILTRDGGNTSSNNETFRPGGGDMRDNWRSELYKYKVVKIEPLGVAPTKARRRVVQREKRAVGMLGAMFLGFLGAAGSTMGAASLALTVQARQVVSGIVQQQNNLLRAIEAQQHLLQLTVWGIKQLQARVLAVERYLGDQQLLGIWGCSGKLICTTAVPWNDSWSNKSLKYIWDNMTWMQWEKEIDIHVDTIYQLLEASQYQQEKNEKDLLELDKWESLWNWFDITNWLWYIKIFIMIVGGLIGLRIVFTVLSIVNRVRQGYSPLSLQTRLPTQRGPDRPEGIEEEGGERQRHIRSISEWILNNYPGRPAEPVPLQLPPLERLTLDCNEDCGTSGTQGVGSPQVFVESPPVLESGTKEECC

By EC50 is commonly meant the concentration that produces a half-maximal response. As usually defined, the CC50 is the concentration at which the toxic effect on the cells reaches its halfway point. As for `CC1(C)CC(NC(=O)C(=O)Nc2ccc(Cl)cc2)CC(C)(C)N1`, the EC50 stood at 6500 nM in data set [1] and 6900 nM in data set [4]. Besides, the CC50 at 96 h in data set [2] was > 280000 nM. For the same molecule, the selectivity ratio was > 43 in data set [3] and 8.7 in data set [5].

Turning to `CNCc1ccc2c(c1)[C@@H](CC[C@@H](O)CO)[C@H](CNC(=N)N)[C@H]2NC(=O)C(=O)Nc1ccc(Cl)c(F)c1`, the EC50 in data set [6] stood at 22000 nM.

Turning to `CN(Cc1ccc2c(c1)[C@H](NC(=O)C(=O)Nc1ccc(Cl)c(F)c1)[C@@H](CNC(=N)N)C2)C(=N)N`, the figures for the EC50 in data set [7] and in data set [8] were 1300 nM and 110 nM, respectively.

With `COc1ccnc2[nH]cc(C(=O)C(=O)N3CCN(C(=O)c4ccccc4)C[C@H]3C)c12`, in data set [9], the EC50 came out at 2200 nM.

In data set [6], `CCOC(=O)N1CCC[C@H](C(=O)Nc2ccc(Cl)c(F)c2)C1` came in with an EC50 of 18000 nM.

What is called IC50 is the concentration needed to halve the response being measured. For the molecule `COc1ccnc2[nH]cc(C(=O)C(=O)N3CCN(C(=O)c4ccccc4)CC3)c12`, the 50% inhibitory concentration (IC50) in data set [10] was 1.5 nM.

As for `CC1(C)CC(NC(=O)C(=O)Nc2ccc(Cl)c(F)c2)CC(C)(C)N1`, the IC50 in data set [11] and in data set [12] was 830 nM in each case.

On to `O=C(O)c1cc(-c2ccc(/C=C3\SC(=S)N(CCc4ccc(O)cc4)C3=O)o2)ccc1Cl`, for which the IC50 in data set [11] and in data set [12] was 830 nM throughout.

In the case of `CC[C@H](C)[C@@H]1NC(=O)[C@H](CC(N)=O)NC(=O)[C@@H](N)CC(=O)NCCCC[C@@H](C(N)=O)NC(=O)[C@H](Cc2c[nH]c3ccccc23)NC(=O)[C@@H]2CC(n3cc(-c4ccc(-c5cccs5)cc4)nn3)CN2C1=O` (stereo partly specified) (H-DNI[X1]WK-NH2; lactam 1-6), the EC50 in data set [13] came to 105 nM. Also, in data set [14], the half-maximal cytotoxic concentration (CC50) at 24 h is 100000 nM.

For `Cc1nc(C(CN)NC(=O)c2ccc(-c3ccc4c(c3)OCO4)[nH]2)sc1CO` (stereo unspecified), the values for the selectivity ratio in data set [3] and in data set [5] were 51 and 63, respectively. Besides, the figures for the EC50 in data set [4] and in data set [16] were 2300 nM and 3800 nM, respectively. In addition, in data set [15], the CC50 at 72 h is 146000 nM. In addition, in [17], the CC50 at 96 h was 193000 nM.

As to `NCCNC(=O)N1CCC[C@H](C(=O)Nc2ccc(Cl)c(F)c2)C1`, the EC50 in [8] worked out at 7000 nM.

Turning to `COc1cnc(-c2csc(CN(C)CCCN(C)C)n2)c2[nH]cc(C(=O)C(=O)N3CCC([C@@H](C#N)c4ccccc4)CC3)c12`, the EC50 in data set [9] was 20 nM.

Molecule `CCOC(=O)N1CCCC(C(=O)Nc2ccc(Cl)c(F)c2)C1` (racemic) came in with an EC50 in [6] of 8300 nM.

As to `CC1(C)CC(NC(=O)C(=O)Nc2ccc(Cl)c(F)c2)CC(C)(C)N1C(=O)COc1ccc(CCN2C(=O)/C(=C/c3ccc(-c4ccc(Cl)c(C(=O)O)c4)o3)SC2=S)cc1`, the IC50 in [18] came to 710 nM; in data set [19], 660 nM. Besides, the values for the CC50 at 48 h in data set [20] and in [21] were 29000 nM and 18000 nM, respectively.

Regarding `CNCc1ccc2c(c1)[C@H](NC(=O)C(=O)Nc1ccc(Cl)c(F)c1)[C@@H](CNC(=N)N)C2`, in data set [7], the EC50 turned out to be 1600 nM.
